# Measured values published in patent publication US11667730B2, “Oxime ester compound and photopolymerization initiator containing the same” (ADEKA CORPORATION, priority 2006, dated 2023).
# Key:
# [1] = Solubility of oxime ester compound in solvent; assay type: physicochemical; details: solvent PGM-Ac: Propylene glycol-1-monomethyl ether-2-acetate
# Protocol: When used as a photopolymerization initiator, they dissolve in propylene glycol-1-monomethyl ether-2-acetate or cyclohexanone as a solvent to a concentration of 1% by mass or higher, to satisfy the requirement as a photopolymerization initiator. The solubility measurement is preferably made at 20° to 30° C.
# [2] = Solubility of oxime ester compound in solvent; assay type: physicochemical; details: solvent CHN: cyclohexanone (footnote)
Solubility PGM-Ac [1],Solubility CHN [2],Compound
3.6%,23%,CCCCC(CC)Cn1c2ccc(/C(=N/OC(C)=O)c3ccc(OCC)cc3OCC)cc2c2cc([N+](=O)[O-])ccc21 (stereo not shown) [compound 56]
6.0%,45%,CCCCCCCCCCC/C(=N\OC(C)=O)c1ccc2c(c1)c1cc([N+](=O)[O-])ccc1n2CC(CC)CCCC (stereo not shown) [compound 50]
0.4%,7.2%,CCCCCCCCCCCCn1c2ccc(/C(C)=N/OC(C)=O)cc2c2cc([N+](=O)[O-])ccc21 [compound 45]
0.3%,5.3%,CCCCCCCCCCCCCCCCn1c2ccc(/C(C)=N/OC(C)=O)cc2c2cc([N+](=O)[O-])ccc21 [compound 47]
1.2%,3.2%,CCCCC(CC)Cn1c2ccc(/C(=N/OC(C)=O)c3ccccc3OCCOC)cc2c2cc([N+](=O)[O-])ccc21 (stereo not shown) [compound 55]
5.0%,24%,CCCCC(CC)Cn1c2ccc(/C(=N/OC(C)=O)c3ccc(C(C)(C)C)cc3)cc2c2cc([N+](=O)[O-])ccc21 (stereo not shown) [compound 53]
0.5%,5.0%,CCCCCCCCCCCCCCn1c2ccc(/C(C)=N/OC(C)=O)cc2c2cc([N+](=O)[O-])ccc21 [compound 46]
5.0%,42%,CCCCCCC/C(=N\OC(C)=O)c1ccc2c(c1)c1cc([N+](=O)[O-])ccc1n2CC(CC)CCCC (stereo not shown) [compound 48]
1.5%,13%,CCCCC(CC)Cn1c2ccc(/C(Cc3ccccc3)=N/OC(C)=O)cc2c2cc([N+](=O)[O-])ccc21 (stereo not shown) [compound 51]
1.2%,7.6%,CCCCC(CC)Cn1c2ccc(/C(=N/OC(C)=O)c3ccc(F)cc3C)cc2c2cc([N+](=O)[O-])ccc21 (stereo not shown) [compound 58]
2.4%,12%,CCn1c2ccc(/C(=N/OC(C)=O)c3ccc(OC(C)C)cc3OC(C)C)cc2c2cc([N+](=O)[O-])ccc21 [compound 57]

# Continued, compound first:
Compound,Solubility PGM-Ac [1],Solubility CHN [2]
COCC(C)OC(=O)Cn1c2ccc(/C(C)=N/OC(C)=O)cc2c2cc([N+](=O)[O-])ccc21 (stereo not shown) [compound 10],0.091%,0.54%
COCC(C)OC(=O)CCCCCn1c2ccc(/C(C)=N/OC(C)=O)cc2c2cc([N+](=O)[O-])ccc21 (stereo not shown) [compound 12],25%,31%
CCn1c2ccc(/C(C)=N/OC(C)=O)cc2c2cc([N+](=O)[O-])ccc21 [compound 3],0.12%,0.80%
CCOCCn1c2ccc(/C(C)=N/OC(C)=O)cc2c2cc([N+](=O)[O-])ccc21 [compound 7],0.38%,2.4%
C=CC(=O)OCCn1c2ccc(/C(CCCCCCCCCCC)=N/OC(C)=O)cc2c2cc([N+](=O)[O-])ccc21 [compound 20],0.16%,3.7%
CCCCC(CC)Cn1c2ccc(/C(=N/OC(C)=O)c3ccc(OC(C)COC)cc3)cc2c2cc([N+](=O)[O-])ccc21 (stereo not shown) [Compound No. 54],20%,14%
CCCCC(CC)Cn1c2ccc(/C(C)=N/OC(C)=O)cc2c2cc([N+](=O)[O-])ccc21 (stereo not shown) [Compound No. 1],4.1%,18.9%
CCn1c2ccc(/C(=N/OC(C)=O)c3ccc(OC(C)COC)cc3C)cc2c2cc([N+](=O)[O-])ccc21 (stereo not shown) [compound 33],5.1%,27%
CCCCCCCCn1c2ccc(/C(C)=N/OC(C)=O)cc2c2cc([N+](=O)[O-])ccc21 [compound 2],1.4%,9.2%
